The text below walks through data of ChEMBL document CHEMBL1201862, “PubChem BioAssay data set” (2004).

Test [1] is described as follows: Counterscreen for inhibitors of Trypanosoma brucei methionyl tRNA synthetase (MetRS): Luminescence-based cell-based high throughput dose response assay to identify compounds that are cytotoxic to Jurkat human T lymphocyte cells. The class given is functional.
For test [2], the target named is T1, Methionyl-tRNA synthetase, putative (Trypanosoma brucei brucei, UniProt Q38C91).
T1 sequence (Q38C91 whole entry): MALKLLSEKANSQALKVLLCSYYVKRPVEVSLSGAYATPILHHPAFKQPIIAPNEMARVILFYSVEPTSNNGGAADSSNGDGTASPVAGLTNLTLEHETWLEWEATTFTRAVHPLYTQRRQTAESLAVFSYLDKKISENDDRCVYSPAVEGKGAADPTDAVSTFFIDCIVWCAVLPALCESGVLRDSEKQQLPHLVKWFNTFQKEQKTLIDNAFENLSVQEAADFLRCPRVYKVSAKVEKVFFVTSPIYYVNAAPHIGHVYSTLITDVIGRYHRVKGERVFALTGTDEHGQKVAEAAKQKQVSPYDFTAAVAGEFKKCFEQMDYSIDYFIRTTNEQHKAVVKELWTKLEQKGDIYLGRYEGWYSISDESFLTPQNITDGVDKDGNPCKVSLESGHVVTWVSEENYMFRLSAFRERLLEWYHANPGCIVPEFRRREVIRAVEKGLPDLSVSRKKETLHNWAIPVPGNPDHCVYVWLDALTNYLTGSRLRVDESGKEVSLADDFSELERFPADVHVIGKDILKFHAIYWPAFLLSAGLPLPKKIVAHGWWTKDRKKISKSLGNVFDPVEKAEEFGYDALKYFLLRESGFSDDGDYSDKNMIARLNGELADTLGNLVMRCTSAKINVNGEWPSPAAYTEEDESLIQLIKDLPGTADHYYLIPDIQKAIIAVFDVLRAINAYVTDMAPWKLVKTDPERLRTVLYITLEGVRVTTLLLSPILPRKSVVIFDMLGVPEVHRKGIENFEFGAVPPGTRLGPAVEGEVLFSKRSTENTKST
In kind it is functional, Trypanosoma brucei brucei strain 927/4 GUTat10.1.

Test [3] deals with T1, Methionyl-tRNA synthetase, putative. The class given is functional, Trypanosoma brucei brucei strain 927/4 GUTat10.1. The source holds these as a separate data set.
The target in test [4] is Fructose-bisphosphate aldolase (Mycobacterium tuberculosis, UniProt P9WQA3). In words: Fluorescence-based biochemical high throughput dose response assay for inhibitors of the fructose-bisphosphate aldolase (FBA) of M. tuberculosis. The class given is functional.
Sequence of Fructose-bisphosphate aldolase (P9WQA3 whole entry): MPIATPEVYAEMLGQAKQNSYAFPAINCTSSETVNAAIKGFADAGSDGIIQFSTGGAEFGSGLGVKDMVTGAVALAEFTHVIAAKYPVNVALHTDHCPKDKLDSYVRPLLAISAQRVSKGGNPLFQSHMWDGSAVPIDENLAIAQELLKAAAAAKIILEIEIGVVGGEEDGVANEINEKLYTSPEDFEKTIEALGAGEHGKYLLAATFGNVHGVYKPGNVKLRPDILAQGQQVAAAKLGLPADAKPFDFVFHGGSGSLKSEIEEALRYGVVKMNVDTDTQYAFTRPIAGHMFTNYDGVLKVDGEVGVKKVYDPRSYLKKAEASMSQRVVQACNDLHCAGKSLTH
Test [5] deals with T2, Beta-lactamase (Pseudomonas aeruginosa, UniProt Q79MP6). In words: […] counterscreen for selective VIM-2 inhibitors: dose response biochemical high throughput screening assay to identify inhibitors of IMP-1 metallo-beta-lactamase. (In general: A counterscreen serves to expose hits that act by an unwanted route or on another target.)
T2 sequence (Q79MP6 whole entry): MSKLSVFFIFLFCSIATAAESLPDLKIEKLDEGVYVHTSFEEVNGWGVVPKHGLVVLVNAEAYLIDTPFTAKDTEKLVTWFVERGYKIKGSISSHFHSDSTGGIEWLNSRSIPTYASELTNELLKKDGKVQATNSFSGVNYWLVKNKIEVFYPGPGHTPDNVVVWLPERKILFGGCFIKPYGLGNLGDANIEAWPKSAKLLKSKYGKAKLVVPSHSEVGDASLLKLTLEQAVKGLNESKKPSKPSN
In test [6] the target is T2, Beta-lactamase. In words: inhibition of IMP-1 beta-lactamase activity – biochemical, epi-absorbance, selectivity assay for VIM-2 inhibitor project, dose response (AID 1920).
Test [7] concerns the target Beta-lactamase (Salmonella choleraesuis (strain SC-B67), UniProt Q5J463). As to the kind of experiment: Epi-absorbance-based counterscreen for selective VIM-2 inhibitors: dose response biochemical high throughput screening assay to identify inhibitors of TEM-1 serine-beta-lactamase.
Test [8] is described as follows: viability loss in HeLa cells – cytotoxicity control for MgcRacGAP inhibitor project, dose response (AID 624300). In kind it is functional.
Test [9] has as its target G-protein coupled receptor 55 (Homo sapiens, UniProt Q9Y2T6). As to the kind of experiment: inhibition of LPI-stimulated GPR55 beta-arrestin translocation – imaging, U2OS, beta-arrestin-GFP, LPI agonist, primary screen (AID 2013).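 Note: antagonist potency measured as reduced agonist-driven arrestin aggregation.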 In kind it is functional.
Test [10] addresses T3, Rac GTPase-activating protein 1 (Homo sapiens, UniProt Q9H0H5).
T3 sequence (Q9H0H5 whole entry): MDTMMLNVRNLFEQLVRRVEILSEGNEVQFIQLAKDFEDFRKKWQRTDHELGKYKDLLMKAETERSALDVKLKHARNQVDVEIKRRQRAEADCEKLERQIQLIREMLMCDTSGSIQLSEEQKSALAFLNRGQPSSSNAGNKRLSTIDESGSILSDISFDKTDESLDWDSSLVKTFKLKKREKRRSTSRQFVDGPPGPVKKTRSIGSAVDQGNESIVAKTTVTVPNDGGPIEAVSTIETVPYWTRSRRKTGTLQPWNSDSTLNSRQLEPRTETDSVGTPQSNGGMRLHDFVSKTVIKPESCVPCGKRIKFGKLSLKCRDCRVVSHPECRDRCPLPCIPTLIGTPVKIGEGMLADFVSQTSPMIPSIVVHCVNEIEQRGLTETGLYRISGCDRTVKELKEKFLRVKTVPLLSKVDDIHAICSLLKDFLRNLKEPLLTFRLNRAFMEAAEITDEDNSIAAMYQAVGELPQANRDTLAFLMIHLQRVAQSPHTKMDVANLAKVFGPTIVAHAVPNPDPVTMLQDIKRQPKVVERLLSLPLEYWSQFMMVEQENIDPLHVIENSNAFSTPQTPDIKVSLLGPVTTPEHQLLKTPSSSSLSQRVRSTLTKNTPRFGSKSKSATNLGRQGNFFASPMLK
In words: blockers of MgcRacGAP-driven Rac1 GTP hydrolysis – biochemical, ADP Hunter fluorescence, primary and confirmatory, confirmation (AID 624330). The class given is functional.

Another test addresses Melanocortin receptor 4 (Homo sapiens, UniProt P32245). In kind it is functional, cell-based.
The next test relates to A549. As to the kind of experiment: viability loss in A549 cells – cell-based, plate reader, cherry-pick samples, cytotoxicity control, dose response (AID 687028). The class given is functional. Conditions: Homo sapiens.
Test [11] can be described thus: Luminescence Cell-Based Dose Confirmation HTS to Identify Inhibitors of Platelet Dense Granule Release. [Related pubchem assays: 1663 (Primary HTS), 1678 (Summary of Project)]. The class given is functional.
Test [12] addresses Luciferin 4-monooxygenase (Photinus pyralis, UniProt P08659). As to the kind of experiment: inhibition of purified Photinus pyralis luciferase – biochemical, luminescence, dose response (AID 1891).
The subject of another test is Vero. As to the kind of experiment: viability loss in Vero cells – cell-based, plate reader, cherry-pick samples, cytotoxicity control, dose response (AID 687020). Conditions: Chlorocebus sabaeus. The class given is functional.
For a further test, the system named is H9c2. In words: cells. In kind it is functional, cell-based. The conditions noted are these: Rattus norvegicus, H9c2, Myocardium.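 Note: confirmatory concentration-response retest of ultra-high-throughput screening hits for modulation of myocardial damage; cell death induced by hydrogen peroxide oxidative stress; compound pretreatment for 60 min then peroxide exposure for 2 h; potency is for protecting the cells against peroxide damage rather than for killing them.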
A short description of test [13]: general cell-killing toxicity readout – plate reader, dry powder samples, cytotoxicity control for PAX8 inhibitor project, dose response (AID 743021). The class given is functional, cell-based.
The next test has as its target Paired box protein Pax-8 (Homo sapiens, UniProt Q06710). In words: PAX8 transcriptional activity inhibition in RMG-I – RMG-I cells, luciferase, cherry-pick, dose response (AID 687027).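 Note: luciferase reporter driven by Pax8 target thyroperoxidase promoter measured by SteadyGlo luminescence.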 In kind it is functional, cell-based.

What is called IC50 is the midpoint of a concentration-inhibition curve. One may read the CC50 as the concentration that lowers cell viability or growth by half. As usually defined, the EC50 is the concentration needed to bring the measured effect to its halfway point. As a reminder, the AC50 is the concentration at which the activity in the assay is half-maximal.

Molecules are shown by their SMILES. Activity calls are given as the source filed them.

Sequence of Beta-lactamase (Salmonella choleraesuis (strain SC-B67), UniProt Q5J463) (Q5J463 whole entry): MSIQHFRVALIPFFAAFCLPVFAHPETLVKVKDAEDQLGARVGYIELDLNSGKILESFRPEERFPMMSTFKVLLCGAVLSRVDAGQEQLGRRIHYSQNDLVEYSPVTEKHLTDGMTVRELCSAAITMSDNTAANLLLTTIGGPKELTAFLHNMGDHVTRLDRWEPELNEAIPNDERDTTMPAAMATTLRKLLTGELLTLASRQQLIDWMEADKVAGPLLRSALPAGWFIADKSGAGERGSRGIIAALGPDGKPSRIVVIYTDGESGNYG
Sequence of Luciferin 4-monooxygenase (P08659 whole entry): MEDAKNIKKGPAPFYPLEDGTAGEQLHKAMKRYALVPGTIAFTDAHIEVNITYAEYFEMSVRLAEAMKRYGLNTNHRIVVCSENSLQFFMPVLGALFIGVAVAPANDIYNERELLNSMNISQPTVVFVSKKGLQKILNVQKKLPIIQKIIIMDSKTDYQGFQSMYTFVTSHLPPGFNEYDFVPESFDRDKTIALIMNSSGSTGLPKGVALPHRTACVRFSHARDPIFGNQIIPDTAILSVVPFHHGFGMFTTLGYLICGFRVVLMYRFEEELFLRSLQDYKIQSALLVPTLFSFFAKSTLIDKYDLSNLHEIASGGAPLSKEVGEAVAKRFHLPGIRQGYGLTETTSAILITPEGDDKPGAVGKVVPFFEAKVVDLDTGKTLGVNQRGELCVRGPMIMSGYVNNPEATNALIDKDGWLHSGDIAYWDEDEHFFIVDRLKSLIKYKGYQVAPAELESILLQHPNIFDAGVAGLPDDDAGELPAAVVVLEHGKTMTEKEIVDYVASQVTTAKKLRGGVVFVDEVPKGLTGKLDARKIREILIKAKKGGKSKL
Sequence of G-protein coupled receptor 55 (Q9Y2T6 whole entry): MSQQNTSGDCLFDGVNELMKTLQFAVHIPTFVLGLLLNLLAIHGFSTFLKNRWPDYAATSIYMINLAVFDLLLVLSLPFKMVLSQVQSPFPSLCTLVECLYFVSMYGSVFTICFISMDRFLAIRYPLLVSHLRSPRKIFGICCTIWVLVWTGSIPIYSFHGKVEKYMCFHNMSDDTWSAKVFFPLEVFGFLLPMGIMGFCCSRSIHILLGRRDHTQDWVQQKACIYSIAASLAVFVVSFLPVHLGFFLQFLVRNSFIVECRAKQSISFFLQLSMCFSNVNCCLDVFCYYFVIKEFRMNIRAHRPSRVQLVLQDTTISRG
Sequence of Melanocortin receptor 4 (P32245 whole entry): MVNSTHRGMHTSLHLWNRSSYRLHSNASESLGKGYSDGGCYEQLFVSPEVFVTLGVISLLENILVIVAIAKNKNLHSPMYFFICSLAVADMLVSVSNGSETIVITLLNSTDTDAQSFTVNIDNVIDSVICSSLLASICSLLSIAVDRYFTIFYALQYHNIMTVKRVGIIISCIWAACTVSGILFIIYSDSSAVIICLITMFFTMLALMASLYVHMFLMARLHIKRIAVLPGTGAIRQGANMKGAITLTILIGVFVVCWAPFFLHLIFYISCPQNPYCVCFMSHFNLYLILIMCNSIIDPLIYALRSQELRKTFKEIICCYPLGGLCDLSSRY
Sequence of Paired box protein Pax-8 (Q06710 whole entry): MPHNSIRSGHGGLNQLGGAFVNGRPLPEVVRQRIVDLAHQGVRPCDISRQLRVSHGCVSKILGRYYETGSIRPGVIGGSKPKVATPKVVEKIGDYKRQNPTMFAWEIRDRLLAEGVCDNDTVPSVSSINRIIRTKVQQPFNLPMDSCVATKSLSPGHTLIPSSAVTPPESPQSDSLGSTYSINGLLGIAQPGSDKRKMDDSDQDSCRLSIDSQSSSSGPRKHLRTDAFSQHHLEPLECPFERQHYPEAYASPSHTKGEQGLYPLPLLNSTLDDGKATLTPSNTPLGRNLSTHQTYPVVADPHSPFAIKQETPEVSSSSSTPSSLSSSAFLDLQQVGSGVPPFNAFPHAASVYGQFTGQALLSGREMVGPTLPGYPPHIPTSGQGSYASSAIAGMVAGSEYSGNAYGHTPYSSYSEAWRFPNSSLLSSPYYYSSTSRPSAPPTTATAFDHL

Consider `O=C(CCCSc1ccc(Cl)cc1)Nc1ccccc1O`, for which the IC50 is 0.158 µM (active) in test [1], 24.1 µM (inactive) in [2] and 24.8 µM (inactive) in test [3].

For `CCS(=O)(=O)Nc1ccccc1C(N)=O`, the concentration for half-maximal inhibition (IC50) in test [4] was 2.58 µM (active).

On to `C=CCn1c(S)nnc1C1CC1`, for which the IC50 on Beta-lactamase [5], on Beta-lactamase [6] and at Beta-lactamase [7] was > 59.6 µM (inactive) in each case.

For the compound `O=C(O)CC/C(=C\c1cc([N+](=O)[O-])ccc1Cl)c1nc2ccccc2s1`, the IC50 on Beta-lactamase [5] is 43.1 µM (inactive); at Beta-lactamase [6], > 59.6 µM (inactive); at Beta-lactamase [7], > 59.6 µM (inactive).

For `Cc1n[nH]c(-c2ccc(O)cc2O)c1Oc1ccccc1`, the half-maximal cytotoxic concentration (CC50) in test [8] is 100 µM (active). Moreover, the IC50 was 8.31 µM (active) in [9] and 34.2 µM (active) in test [10].

In the case of `CC(=O)Nc1cc(-c2ccc(C(=O)NC3CC3)cc2)cn2c(-c3cccc(C(F)(F)F)c3)cnc12`, the EC50 at Melanocortin receptor 4 is > 89.2 µM (inactive). Further, the AC50 in the test on A549 is 26.8 µM (active).

As for `CCN(CC)c1ccc(/C=N/NC(=O)c2ccoc2C)cc1`, the concentration giving a half-maximal response (EC50) in test [11] is 3.59 µM (active); in test [12] it was 1.42 µM (active). The CC50 in test [8] is 100 µM (active).

Take `COC(=O)c1ccc2nc(-c3ccc(F)cc3)c(Cc3ccccc3OC)n2c1`: the half-maximal activity concentration (AC50) in the test on Vero is 35.2 µM (active).

As to `CCOC(=O)CC1(C)Sc2ccccc2N1S(=O)(=O)c1ccc(C)cc1` (centres undefined), the concentration at half-maximal activity (AC50) in the test with Vero was 28.5 µM (active).

As for `CNc1cccc(-c2ccc(N3CCN(C)CC3)nc2)n1`, in test [4], the half-maximal inhibitory concentration (IC50) is 2.18 µM (active).

Take `C=C1C(C)C2C(Cc3ccccc3)NC(=O)C23OC(=O)/C=C/C(O)CCCC(C)C/C=C/C3C1O` (centres undefined): the IC50 in the test on H9c2 is > 79 µM (inactive). The figures for the half-maximal activity concentration (AC50) (in [13]; at Paired box protein Pax-8) were 3.36 µM (active) and 3.15 µM (active), respectively.
